Laboratory results from patent US11173144B2, “Adrenergic receptor modulating compounds and methods of using the same” (The Board of Trustees of the Leland Stanford Junior …, priority 2016, dated 2021).

Columns and labels:
[1] = Body weight changes on chronic administration in mice; assay type: in vivo; conditions: 10 mg/kg subcutaneous
Description: Transgenic mice expressing amyloid beta protein precursor (APP) and wild-type mice were chronically administered with KSN01-01-18 (10 mg/kg, subcutaneous). Changes on body weight were recorded. Effects of KSN01-01-18 on cognitive function were evaluated in Morris water maze (MWM). Briefly, In the MWM, a large water tank (178 cm in diameter) filled with water was used. A circular platform was placed about 1 cm below the water surface approximately 17 cm away from the wall in one 20 quadrant of the tank. Nontoxic tempera paints were used to make the water opaque. During the consecutive days of hidden platform training, mice were released from drop locations and given 60 sec to find the platform. Upon completion of the hidden platform training, the platform was removed and a 60-sec probe trial was conducted. Successful learning of MWM was determined by the gradual decrease in escape latency during the hidden platform training and discriminative quadrant exploration and latency to reach virtual platform during the probe trial.

C57BI/6J female mice = assay: 24 day administration, lung and heart weight and fibrosis; assay type: in vivo; conditions: 10 mg/kg for 24 days
Description: C57BI/6J female mice were administered with isoproterenol, KSN01-01-15, or KSN01-01-18 at 10 mg/kg for 24 days. After 24 days of treatment, mice were sacrificed, and lung and heart weight were measured. Hearts were then fixed in 10% formalin, and stained with Masson trichrome for evaluation of fibrosis.

[2] = test system: Transgenic mice expressing amyloid beta protein precursor (APP); assay: Morris water maze in transgenic mice expressing amyloid beta protein precursor (APP); assay type: in vivo; conditions: 10 mg/kg subcutaneous, chronic
Description: Mice are tested in a large water tank (178 cm in diameter; 22.0±1.5° C.) with a submerged 17 cm diameter circular platform (˜1 cm below the water surface and ˜50 cm away from the wall). Non-toxic tempera paints (Elmers) are used to make the water opaque. Privacy blinds with four different visual cues surrounded the tank and are located ˜150 cm from the center of the tank. Testing is performed under dim white light (40 Lux at the water surface). Activity is monitored with Ethovision via an overhead video system. Mice complete 4-6 days of hidden platform training (60 seconds to locate the platform when released from a pseudorandomized drop location). […] Successful leaming of MWM is determined by reduced escape latency and discriminative quadrant exploration during the probe trial. […]
Transgenic mice expressing amyloid beta protein precursor (APP) and wild-type mice were chronically administered with KSN01-01-18 (10 mg/kg, subcutaneous). Changes on body weight were recorded. Effects of KSN01-01-18 on cognitive function were evaluated in Morris water maze (MWM). […] Successful learning of MWM was determined by the gradual decrease in escape latency during the hidden platform training and discriminative quadrant exploration and latency to reach virtual platform during the probe trial.

[3] = Plasma versus brain concentration after subcutaneous administration in mice; conditions: mouse, in vivo
Description: The concentration of selected compounds in plasma (FIG. 8A) versus concentration in brain (FIG. 8A) was assessed after administration in a mice. Briefly, mice are administered with selected compounds via subcutaneous route. Thirty minutes after the compound administration, plasma and brain samples are collected. Concentrations of the selected compounds in plasma and brains are determined by LC/MS/MS.

With `Cc1n[nH]c2cccc(OC[C@@H](O)CNCc3ccn(C)n3)c12` [Compound 92] the “general toxicity as measured by changes in body weight” value [1] was “does not cause general toxicity”, the “fibrotic changes in heart and heart weight” value (C57BI/6J female mice) was “did not induce these changes” and the “fibrotic changes in lung and lung weight” value (C57BI/6J female mice) was “did not induce these changes”. For the same molecule, the “morphological changes in heart” value (C57BI/6J female mice) was “did not induce these changes” and the “cognitive function in Morris water maze (time to find the virtual platform)” value [2] was “cognitive enhancing effects”.

In the case of `Cc1n[nH]c2cccc(OC[C@@H](O)CNCCNC(=O)N3CCOCC3)c12` [Compound 38], the “crossing the blood brain barrier” value [3] is reported as “not capable of crossing the blood brain barrier”.
